In general, melting point refers to the temperature of the solid-liquid transition.

The target in one data set is T1, wild-type nAChR α7 receptors (Homo sapiens, UniProt P36544).
T1 construct: expressed in transfected cells; host or cells: Xenopus laevis oocytes
T1 sequence (P36544 23-502): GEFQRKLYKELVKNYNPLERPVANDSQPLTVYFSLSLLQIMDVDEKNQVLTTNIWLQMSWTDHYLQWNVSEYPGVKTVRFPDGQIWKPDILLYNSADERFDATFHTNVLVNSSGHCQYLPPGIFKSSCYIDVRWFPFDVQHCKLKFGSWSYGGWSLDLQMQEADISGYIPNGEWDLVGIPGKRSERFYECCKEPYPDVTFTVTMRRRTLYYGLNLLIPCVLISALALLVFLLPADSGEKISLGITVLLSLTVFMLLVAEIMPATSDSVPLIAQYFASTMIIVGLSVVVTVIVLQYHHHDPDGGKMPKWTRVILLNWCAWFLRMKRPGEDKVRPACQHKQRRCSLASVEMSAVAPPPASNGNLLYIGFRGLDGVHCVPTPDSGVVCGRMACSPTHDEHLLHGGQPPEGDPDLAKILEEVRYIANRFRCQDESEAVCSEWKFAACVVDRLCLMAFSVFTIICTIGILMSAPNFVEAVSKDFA
Briefly: Positive modulation of acetylcholine-induced currents at nAChR α7 receptors expressed in Xenopus laevis oocytes (two-electrode voltage clamp). The note with it: 100 μM acetylcholine; (test-control)/control*100%; fitted to the sigmoidal logistic equation. It is filed as cell-based. As to the method:
In this example the positive modulation of wild-type nAChR α7 receptors by Compound 3 (FIGS. 1A and 1B) was determined using nAChR α7 receptors heterologously expressed in Xenopus laevis oocytes.
The electrical current through the nAChR α7 channel was measured using conventional two-electrode voltage clamp and nAChR α7 currents were activated by applying pulses of agonist-containing solution onto the nAChR α7 expressing oocyte.
In brief, the oocytes were placed in a recording chambers and continuously superfused with an Oocyte Ringer (OR) solution containing 90 mM NaCl, 2.5 mM KCl, 2.5 mM CaCl2, 1 mM MgCl2 and 5 mM HEPES (pH adjusted to 7.4). The oocytes were clamped at −60 mV and currents were induced by applying 20 s pulses of 100 μM acetylcholine dissolved in OR. The intervals between the acetylcholine applications were 5 minutes, during which the oocytes were washed with OR. The first three applications were control applications to insure a constant response level of 100 μM acetylcholine.
The positive modulation in the presence of Compound 3 was calculated as (test-control)/control*100% and the concentration response curve for this positive modulation was fitted to the sigmoidal logistic equation: I=Imax/(1+(EC50/[compound])^n), where Imax represents the maximal modulation of the control response, EC50 is the concentration causing a half maximal response, and n is the slope coefficient.
Take `O=C(CCc1c[nH]c2ccccc12)N/N=C/c1ccc(F)cc1` [Compound 3, 3-(1H-Indol-3-yl)-propionic acid [1-(4-fluoro-phenyl)-meth-(E)-ylidene]-hydrazide]: the “Imax (maximal modulation of the acetylcholine control response)” value is listed as 140%.

The same data set, now with this note: 100 μM acetylcholine; oocytes clamped at −60 mV; 0.01-31.6 μM compound applied 30 s before and during acetylcholine; read-out: EC50 (concentration causing a half maximal response) for positive modulation of acetylcholine responses.
Consider `O=C(CCc1c[nH]c2ccccc12)N/N=C/c1ccc(F)cc1` [Compound 3, 3-(1H-Indol-3-yl)-propionic acid [1-(4-fluoro-phenyl)-meth-(E)-ylidene]-hydrazide], for which the EC50 amounted to 4.1 µM.

Staying with this data set, now noted: 0.01-31.6 μM compound with 100 μM acetylcholine.
For the compound `O=C(CCc1c[nH]c2ccccc12)N/N=C/c1ccc(F)cc1` [Compound 3, 3-(1H-Indol-3-yl)-propionic acid [1-(4-fluoro-phenyl)-meth-(E)-ylidene]-hydrazide], the “effect on acetylcholine-induced current amplitude” value is “robust increase”.

System in another data set: not given
Assay: not given
Conditions: not given
As to `O=C(CCc1c[nH]c2ccccc12)N/N=C1\CCCc2ccccc21` [Compound 3L, 3-(1H-Indol-3-yl)-propionic acid [3,4-dihydro-2H-naphthalen-(1E)-ylidene]-hydrazide], the melting point is 119.3 to 120.2 °C.

`COc1ccc(/C=N/NC(=O)CCc2c[nH]c3ccccc23)cc1` [Compound 3B, 3-(1H-Indol-3-yl)-propionic acid [1-(4-methoxy-phenyl)-meth-(E)-ylidene]-hydrazide] showed a melting point of 168.3 to 169.7 °C.

`C/C(=N\NC(=O)CCc1c[nH]c2ccccc12)c1ccccc1` [Compound 3K, 3-(1H-Indol-3-yl)-propionic acid [1-phenyl-eth-(E)-ylidene]-hydrazide]: the melting point is 156.2 to 158.2 °C.

Turning to `O=C(CCc1c[nH]c2ccccc12)N/N=C/c1ccccc1F` [Compound 3E, 3-(1H-Indol-3-yl)-propionic acid [1-(2-fluoro-phenyl)-meth-(E)-ylidene]-hydrazide], the melting point was 118 to 123 °C.

Compound `O=C(CCc1c[nH]c2ccccc12)N/N=C/c1ccsc1` [Compound 3D, 3-(1H-Indol-3-yl)-propionic acid [1-thiophen-3-yl-meth-(E)-ylidene]-hydrazide] returned a melting point of 145.5 to 148.1 °C.

Compound `O=C(CCc1c[nH]c2ccccc12)N/N=C/c1ccc(Cl)cc1` [Compound 3G, 3-(1H-Indol-3-yl)-propionic acid [1-(4-chloro-phenyl)-meth-(E)-ylidene]-hydrazide] showed a melting point of 201.5 to 202.5 °C.

Turning to `CC1=C/C(=N/NC(=O)CCc2c[nH]c3ccccc23)c2ccccc2C1=O` [Compound 3N, 3-(1H-Indol-3-yl)-propionic acid [3-methyl-4-oxo-4H-naphthalen-(1Z)-ylidene]-hydrazide], the melting point fell in the range of 248.6 to 249.5 °C.

`O=C(CCc1c[nH]c2ccc(F)cc12)N/N=C/c1ccccc1` [Compound 3I, 3-(5-Fluoro-1H-indol-3-yl)-propionic acid [1-phenyl-meth-(E)-ylidene]-hydrazide] had a melting point of 171.2 to 173.9 °C.

Turning to `O=C(CCc1c[nH]c2ccc(F)cc12)N/N=C/c1ccccc1F` [Compound 3J, 3-(5-Fluoro-1H-indol-3-yl)-propionic acid [1-(2-fluoro-phenyl)-meth-(E)-ylidene]-hydrazide], the melting point lay in the range of 132.8 to 134 °C.

Consider `O=C(CCc1c[nH]c2ccc(F)cc12)N/N=C/c1ccc(F)cc1` [Compound 3M, 3-(5-Fluoro-1H-indol-3-yl)-propionic acid [1-(4-fluoro-phenyl)-meth-(E)-ylidene]-hydrazide], for which the melting point was 213.8 to 215.3 °C.

As to `O=C(CCc1c[nH]c2ccccc12)N/N=C/c1ccccc1` [Compound 3A, 3-(1H-Indol-3-yl)-propionic acid [1-phenyl-meth-(E)-ylidene]-hydrazide], the melting point fell in the range of 169.8 to 171.2 °C.

For `O=C(CCc1c[nH]c2ccccc12)N/N=C/c1cccs1` [Compound 3F, 3-(1H-Indol-3-yl)-propionic acid [1-thiophen-2-yl-meth-(E)-ylidene]-hydrazide], the melting point lay in the range of 146.5 to 149.4 °C.
